Test results from article PMC4321733 (Bioorganic & medicinal chemistry letters, 2014).

What follows are compounds tested against PDE10A (Homo sapiens, UniProt Q9Y233) (assay: scintillation proximity assay). Details: ratio of IC50 values.
PDE10A, sequence (Q9Y233 whole entry): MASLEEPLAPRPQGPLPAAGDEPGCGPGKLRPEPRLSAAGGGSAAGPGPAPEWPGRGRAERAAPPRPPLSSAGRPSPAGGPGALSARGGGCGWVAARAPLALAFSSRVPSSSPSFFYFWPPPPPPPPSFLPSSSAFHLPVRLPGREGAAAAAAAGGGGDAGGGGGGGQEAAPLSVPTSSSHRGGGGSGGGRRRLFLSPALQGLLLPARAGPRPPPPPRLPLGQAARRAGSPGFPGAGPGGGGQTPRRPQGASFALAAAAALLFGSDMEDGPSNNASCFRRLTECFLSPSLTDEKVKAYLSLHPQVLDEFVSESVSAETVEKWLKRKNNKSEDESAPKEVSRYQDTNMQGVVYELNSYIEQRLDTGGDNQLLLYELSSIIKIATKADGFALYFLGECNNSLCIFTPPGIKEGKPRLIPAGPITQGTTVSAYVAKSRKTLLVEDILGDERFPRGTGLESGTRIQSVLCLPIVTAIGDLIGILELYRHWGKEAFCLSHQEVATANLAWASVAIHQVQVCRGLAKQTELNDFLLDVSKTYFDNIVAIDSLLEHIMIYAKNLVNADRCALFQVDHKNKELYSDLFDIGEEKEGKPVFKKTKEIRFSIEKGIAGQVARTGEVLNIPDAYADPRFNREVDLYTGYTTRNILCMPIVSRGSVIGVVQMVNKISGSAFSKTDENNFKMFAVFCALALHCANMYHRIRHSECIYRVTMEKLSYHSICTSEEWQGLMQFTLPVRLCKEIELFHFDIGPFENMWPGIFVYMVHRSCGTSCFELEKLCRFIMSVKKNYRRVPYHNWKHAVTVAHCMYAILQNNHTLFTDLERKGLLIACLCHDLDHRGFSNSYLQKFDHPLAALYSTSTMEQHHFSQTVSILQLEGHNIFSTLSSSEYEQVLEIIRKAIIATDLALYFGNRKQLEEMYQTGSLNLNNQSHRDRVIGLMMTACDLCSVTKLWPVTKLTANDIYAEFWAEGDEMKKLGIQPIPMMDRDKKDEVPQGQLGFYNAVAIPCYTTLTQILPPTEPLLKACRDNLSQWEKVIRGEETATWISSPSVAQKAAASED

in vitro selectivity for PDE10A over PDE3A/3B, PDE4A/4B	Structure (SMILES)
> 1,000 fold	COc1cc2nncc(-c3cnc(N4CCC(O)(c5cccnc5)CC4)c(C)c3)c2cc1OC [Compound 26a]
> 1,000 fold	COc1cc2nncc(-c3cnc(N4CCC(O)(c5ccc(F)nc5)CC4)c(C)c3)c2cc1OC [Compound 26b]
> 1,000 fold	Cn1c(C(=O)c2ccc(Oc3ncccc3-c3cccnc3)cc2)nc2ccccc21 [Compound 33c]
